Laboratory results taken from US20150164957A1, “CONVERSION OF CARDIOMYOCYTES INTO FAST CONDUCTING CARDIOMYOCYTES OR SLOW CONDUCTING NODAL CELLS” (The University of Chicago, priority 2012, published 2015).

Legend:
Nav1.8 [1] = target: Nav1.8 (Homo sapiens, UniProt Q9Y5Y9); details: at the dose used; cited from earlier work
Nav1.8 [2] = details: after administration of A-803467; cited from earlier work
[3] = test system: tamoxifen-treated Tbx5^minKCreERT2 and Tbx5^fl/fl mice; assay: Invasive EP studies (intracardiac recordings) following atropine administration; format: in vivo, mouse; details: for AH (AtrioHisian interval) / HV (Hisioventricular interval) / Hd (His interval duration) / SCL (sinus cycle length): Post-Atropine (20 mg/kg), Mean +/- SD
Procedure: Electrophysiology Studies. Electrophysiology studies were performed in collaboration with Fang Liu, Kurt Schillinger, and Vic Patel at The University of Pennsylvania. Detailed protocols for in vivo electrophysiology studies have been previously described (Liu, et al., 2008). 10-12 week old mice were anesthetized with pentobarbital (33 mg/kg ip) and a 1.1-Fr octapolar electrode catheter (Millar; EPR-800) was advanced via a right jugular venous cut-down to record right atrial, His bundle, right ventricular potentials and perform programmed electrical stimulation. For studies involving atropine, surface ECG and intracardiac recordings were obtained, then repeated after mice were injected with 20 mg/kg atropine.
The autonomic nervous system can play an important role in modulating cardiac conduction. Specifically, activation of the sympathetic nervous system can increase heart rate, contractility, and accelerate conduction through the AV node, while parasympathetic stimulation via the vagus nerve can act at the SA and AV nodes to decrease heart rate and slow AV conduction. To determine whether slowed conduction in Tbx5^minkCreERT2 mice was secondary to increased vagal tone, the inventors administered atropine, a cholinergic antagonist, to tamoxifen-treated Tbx5^minKCreERT2 and Tbx5^fl/fl mice and evaluated conduction intervals by EP studies.

[4] = test system: Mice with hyperactivation of Nav1.8; details: cited from earlier work

Chain of Nav1.8 (Homo sapiens, UniProt Q9Y5Y9) (Q9Y5Y9 whole entry): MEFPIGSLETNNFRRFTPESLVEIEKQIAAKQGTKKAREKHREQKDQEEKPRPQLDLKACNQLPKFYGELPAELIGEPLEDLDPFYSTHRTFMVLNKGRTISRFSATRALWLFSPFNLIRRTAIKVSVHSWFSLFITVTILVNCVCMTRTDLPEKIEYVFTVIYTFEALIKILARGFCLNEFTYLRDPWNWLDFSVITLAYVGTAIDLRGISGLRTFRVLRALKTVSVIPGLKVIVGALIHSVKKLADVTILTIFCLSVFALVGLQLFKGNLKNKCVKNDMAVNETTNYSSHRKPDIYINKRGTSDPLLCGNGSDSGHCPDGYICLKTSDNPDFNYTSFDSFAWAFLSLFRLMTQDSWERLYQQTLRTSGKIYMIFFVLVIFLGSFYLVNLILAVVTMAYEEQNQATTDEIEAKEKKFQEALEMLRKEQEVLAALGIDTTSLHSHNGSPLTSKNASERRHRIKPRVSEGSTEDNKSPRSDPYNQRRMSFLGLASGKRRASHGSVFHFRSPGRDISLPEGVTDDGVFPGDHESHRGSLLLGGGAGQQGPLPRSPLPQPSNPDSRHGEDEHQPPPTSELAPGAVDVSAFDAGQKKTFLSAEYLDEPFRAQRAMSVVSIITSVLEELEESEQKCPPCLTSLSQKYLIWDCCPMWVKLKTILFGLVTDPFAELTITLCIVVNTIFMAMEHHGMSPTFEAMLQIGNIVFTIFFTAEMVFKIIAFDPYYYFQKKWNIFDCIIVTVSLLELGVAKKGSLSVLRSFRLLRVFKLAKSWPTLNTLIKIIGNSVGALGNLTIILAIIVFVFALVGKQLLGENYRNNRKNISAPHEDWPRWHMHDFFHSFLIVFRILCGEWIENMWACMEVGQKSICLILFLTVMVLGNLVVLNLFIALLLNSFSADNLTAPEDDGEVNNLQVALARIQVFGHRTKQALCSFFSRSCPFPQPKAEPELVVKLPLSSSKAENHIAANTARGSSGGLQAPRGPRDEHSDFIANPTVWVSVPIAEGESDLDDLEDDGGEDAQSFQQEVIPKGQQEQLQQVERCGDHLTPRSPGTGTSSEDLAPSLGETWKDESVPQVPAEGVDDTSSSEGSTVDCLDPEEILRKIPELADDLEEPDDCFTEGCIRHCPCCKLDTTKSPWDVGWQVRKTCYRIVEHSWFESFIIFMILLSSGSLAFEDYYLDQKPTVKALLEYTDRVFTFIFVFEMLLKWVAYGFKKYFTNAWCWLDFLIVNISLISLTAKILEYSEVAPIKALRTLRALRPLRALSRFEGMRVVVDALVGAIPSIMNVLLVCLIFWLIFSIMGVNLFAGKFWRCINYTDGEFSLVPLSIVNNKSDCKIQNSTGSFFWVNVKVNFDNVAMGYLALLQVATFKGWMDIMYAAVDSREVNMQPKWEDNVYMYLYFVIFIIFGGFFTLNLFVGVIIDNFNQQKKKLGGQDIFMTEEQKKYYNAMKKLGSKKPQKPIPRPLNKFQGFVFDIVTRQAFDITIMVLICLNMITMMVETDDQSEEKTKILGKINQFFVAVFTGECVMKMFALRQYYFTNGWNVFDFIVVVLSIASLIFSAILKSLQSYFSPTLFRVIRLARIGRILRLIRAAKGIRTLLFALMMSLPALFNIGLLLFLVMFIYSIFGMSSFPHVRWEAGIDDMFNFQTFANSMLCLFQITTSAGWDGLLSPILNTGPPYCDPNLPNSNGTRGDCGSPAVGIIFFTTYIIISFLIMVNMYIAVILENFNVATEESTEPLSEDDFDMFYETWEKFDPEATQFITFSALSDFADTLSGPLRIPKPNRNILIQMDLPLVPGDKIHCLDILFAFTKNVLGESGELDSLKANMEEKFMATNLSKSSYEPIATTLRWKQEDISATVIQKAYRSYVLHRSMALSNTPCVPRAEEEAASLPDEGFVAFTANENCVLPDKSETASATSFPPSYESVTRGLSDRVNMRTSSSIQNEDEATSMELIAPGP

In the case of COc1cc(NC(=O)c2ccc(-c3ccc(Cl)cc3)o2)cc(OC)c1 [A-803467], the “Activity against Nav1.8 relative to Nav1.5” value (Nav1.8 [1]) is given as 100 fold, the H-V interval (Nav1.8 [2]) is given as “increased” and the P-R interval (Nav1.8 [2]) is given as “increased”. The QRS interval (Nav1.8 [2]) was “increased”.
For CN1[C@@H]2CC[C@H]1C[C@@H](OC(=O)C(CO)c1ccccc1)C2 (some centres unmarked) [Atropine, atropine], the “AH (AtrioHisian interval)” value ([3]; Tbx5^fl/fl mice (n = 3)) was 28.0 ± 9.9 ms, the “HV (Hisioventricular interval)” value ([3]; Tbx5^fl/fl mice (n = 3)) was 9.0 ± 3.2 ms and the “Hd (His interval duration)” value ([3]; Tbx5^fl/fl mice (n = 3)) was 3.7 ± 1.5 ms. The “SCL (sinus cycle length)” value ([3]; Tbx5^fl/fl mice (n = 3)) was 141.3 ± 30.9 ms, the “AH (AtrioHisian interval)” value ([3]; Tbx5^minKCreERT2 mice (n = 3)) was 35.7 ± 3.6 ms and the “HV (Hisioventricular interval)” value ([3]; Tbx5^minKCreERT2 mice (n = 3)) was 26.0 ± 2.4 ms. The “Hd (His interval duration)” value ([3]; Tbx5^minKCreERT2 mice (n = 3)) was 11.7 ± 2.5 ms, the “SCL (sinus cycle length)” value ([3]; Tbx5^minKCreERT2 mice (n = 3)) was 146.3 ± 11.6 ms and the “Effect of cholinergic blockade on conduction” value ([3]; Tbx5^minKCreERT2 or Tbx5^fl/fl mice, EP studies) was “did not result in accelerated conduction”. The “Effect on sinus bradycardia following scruffing” value [4] was “blocked”.
